This is an account of results in ChEMBL document CHEMBL1201862, “PubChem BioAssay data set” (2004).

The source made the active and inactive calls.

For assay [1], the system named is Streptococcus sp. 'group A'. Kind of assay: Streptococcus pyogenes SK(-)GAS viability under kanamycin – luminescence, BacTiterGlo, confirmation, counter-screen for streptokinase expression inhibitor project, dose response (AID 1900). In kind it is functional, organism-based.
The test system of assay [2] is Streptococcus. Kind of assay: GAS UMAA2166 growth inhibition – luminescence, BacTiterGlo, counter-screen for streptokinase expression inhibitor project, dose response (AID 1915).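 Also: potency for reduction of bacterial viability or growth.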 In kind it is functional, organism-based. A general note: The purpose of a counterscreen is to sort out artefacts and off-target activity.
Assay [3] concerns the target T1, Short transient receptor potential channel 4 (Mus musculus, UniProt Q9QUQ5).
T1 sequence (Q9QUQ5 whole entry): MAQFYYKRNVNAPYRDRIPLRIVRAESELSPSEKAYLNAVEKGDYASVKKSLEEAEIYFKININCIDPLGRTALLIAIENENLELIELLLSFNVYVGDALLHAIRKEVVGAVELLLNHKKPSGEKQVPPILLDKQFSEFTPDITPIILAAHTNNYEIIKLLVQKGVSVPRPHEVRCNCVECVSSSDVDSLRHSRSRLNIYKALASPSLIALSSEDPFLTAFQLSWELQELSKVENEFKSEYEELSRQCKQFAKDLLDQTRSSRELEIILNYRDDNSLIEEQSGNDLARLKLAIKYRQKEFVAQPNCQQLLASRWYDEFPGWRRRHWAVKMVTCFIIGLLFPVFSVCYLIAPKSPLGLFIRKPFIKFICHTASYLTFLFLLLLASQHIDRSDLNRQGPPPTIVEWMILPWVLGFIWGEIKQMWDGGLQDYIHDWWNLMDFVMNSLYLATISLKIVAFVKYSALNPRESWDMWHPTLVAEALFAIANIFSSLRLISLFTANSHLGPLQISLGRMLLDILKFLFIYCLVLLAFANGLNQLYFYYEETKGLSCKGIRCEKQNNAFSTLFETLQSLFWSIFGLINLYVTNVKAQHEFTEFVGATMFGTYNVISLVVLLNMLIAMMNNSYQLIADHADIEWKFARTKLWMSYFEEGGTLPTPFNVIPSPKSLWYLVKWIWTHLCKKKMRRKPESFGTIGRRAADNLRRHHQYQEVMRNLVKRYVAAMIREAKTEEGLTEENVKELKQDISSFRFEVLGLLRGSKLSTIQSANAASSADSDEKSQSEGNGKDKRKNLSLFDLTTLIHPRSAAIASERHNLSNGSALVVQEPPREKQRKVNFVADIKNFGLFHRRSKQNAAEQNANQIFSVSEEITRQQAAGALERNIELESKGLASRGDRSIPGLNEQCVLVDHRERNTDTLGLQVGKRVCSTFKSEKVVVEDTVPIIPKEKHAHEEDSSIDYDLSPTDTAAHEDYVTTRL
Kind of assay: block of DAMGO-driven TRPC4 calcium entry – cell-based, HEK293 TRPC4/mu-opioid, Fluo-4 calcium, dose response (AID 434942).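 Also: potency of inhibitors blocking the TRPC4 calcium response.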 Format: functional.

The target in assay [4] is Protein Rev (Human immunodeficiency virus type 1 group M subtype B (isolate HXB2)(HIV-1), UniProt P04618). Kind of assay: blockers of HIV Rev/RRE RNA complex – biochemical, fluorescence polarization, HIV-1, dose response (AID 434976). Details: species or system Human immunodeficiency virus 1. (In fluorescence polarisation assays a small probe gives low polarisation when free and higher when bound to something large.)

Assay [5] addresses Serine/threonine-protein phosphatase (Homo sapiens, UniProt Q9BPW0). Kind of assay: inhibition of protein phosphatase 5 activity – biochemical, fluorescence, dose response (AID 2395).
The target of assay [6] is T2, Sentrin-specific protease 7 (Homo sapiens, UniProt Q9BQF6).
T2 sequence (Q9BQF6 whole entry): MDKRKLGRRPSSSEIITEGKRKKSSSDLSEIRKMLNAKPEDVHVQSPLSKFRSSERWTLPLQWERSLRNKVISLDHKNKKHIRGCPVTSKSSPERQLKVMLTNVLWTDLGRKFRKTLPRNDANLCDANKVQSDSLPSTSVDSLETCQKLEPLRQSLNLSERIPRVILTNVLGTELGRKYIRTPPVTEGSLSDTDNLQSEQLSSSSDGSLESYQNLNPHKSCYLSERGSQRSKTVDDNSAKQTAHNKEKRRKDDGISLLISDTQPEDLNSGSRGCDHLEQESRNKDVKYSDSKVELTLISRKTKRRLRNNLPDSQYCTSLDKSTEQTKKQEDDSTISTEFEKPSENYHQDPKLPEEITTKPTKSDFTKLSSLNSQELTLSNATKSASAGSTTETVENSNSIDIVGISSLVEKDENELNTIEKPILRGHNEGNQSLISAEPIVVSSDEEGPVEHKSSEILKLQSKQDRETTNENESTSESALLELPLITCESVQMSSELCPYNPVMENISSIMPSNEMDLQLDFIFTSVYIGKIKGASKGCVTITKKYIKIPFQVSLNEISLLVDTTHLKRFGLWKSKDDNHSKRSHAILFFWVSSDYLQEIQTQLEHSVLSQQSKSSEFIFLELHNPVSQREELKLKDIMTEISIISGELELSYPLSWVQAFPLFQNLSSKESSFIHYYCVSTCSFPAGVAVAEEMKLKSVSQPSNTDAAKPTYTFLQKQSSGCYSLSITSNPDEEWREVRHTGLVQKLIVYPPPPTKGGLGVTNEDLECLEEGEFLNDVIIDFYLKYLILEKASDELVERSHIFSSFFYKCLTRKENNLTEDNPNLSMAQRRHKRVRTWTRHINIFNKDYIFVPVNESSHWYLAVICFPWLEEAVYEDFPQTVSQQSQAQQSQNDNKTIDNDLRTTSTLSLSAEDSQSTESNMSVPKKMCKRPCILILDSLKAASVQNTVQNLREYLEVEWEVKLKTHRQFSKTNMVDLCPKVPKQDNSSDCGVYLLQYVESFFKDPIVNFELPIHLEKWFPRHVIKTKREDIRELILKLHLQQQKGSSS
Kind of assay: inhibition of human SENP7 cleavage activity – biochemical, luminescence, SAR follow-up (AID 504497). Format: functional.

Assay [7] in a line: Luminescence-based dose response cell-based high throughput screening assay for cytotoxic compounds using the IEC-6 intestinal epithelial cell line. [Related pubchem assays: 1858 (Summary AID.), 1825 (Counterscreen.), 1907 (Confirmation screen.)]. Format: functional.
Assay [8] deals with Beta-galactosidase (Escherichia coli, UniProt Q8VNN2). Kind of assay: detection-enzyme interference by beta-gal modulators – biochemical, E. coli enzyme, set 3, artefact control for CCR6 antagonist project, dose response (AID 504712). In kind it is functional.
Assay [9] can be described thus: HEK-293T viability loss after treatment – luminescence, T-cell screen hits, cytotoxicity control for TCR NF-kB inhibitor project, dose response (AID 489026).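 Also: cells exposed to compound about 14 hours before the viability readout.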 Format: functional, cell-based.
In assay [10] the target is SUMO-activating enzyme (Homo sapiens, UniProt Q9UBT2). Kind of assay: blockers of SAE1/SAE2–UBC9 SUMO transfer – biochemical, HTRF, uHTS, primary screen (AID 2006). In kind it is protein-complex assay.
Assay [11] is described as follows: Luminescence Cell-Based Dose Retest to Confirm Inhibitors of Cancer Stem Cells. [Related pubchem assays (depositor defined):AID2717, AID2721]. Format: functional. As to conditions: Homo sapiens.
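For AC50 in this document: cells exposed to compound for roughly 70 hours or longer before luminescence read.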

Sequence of Serine/threonine-protein phosphatase (Q9BPW0 whole entry): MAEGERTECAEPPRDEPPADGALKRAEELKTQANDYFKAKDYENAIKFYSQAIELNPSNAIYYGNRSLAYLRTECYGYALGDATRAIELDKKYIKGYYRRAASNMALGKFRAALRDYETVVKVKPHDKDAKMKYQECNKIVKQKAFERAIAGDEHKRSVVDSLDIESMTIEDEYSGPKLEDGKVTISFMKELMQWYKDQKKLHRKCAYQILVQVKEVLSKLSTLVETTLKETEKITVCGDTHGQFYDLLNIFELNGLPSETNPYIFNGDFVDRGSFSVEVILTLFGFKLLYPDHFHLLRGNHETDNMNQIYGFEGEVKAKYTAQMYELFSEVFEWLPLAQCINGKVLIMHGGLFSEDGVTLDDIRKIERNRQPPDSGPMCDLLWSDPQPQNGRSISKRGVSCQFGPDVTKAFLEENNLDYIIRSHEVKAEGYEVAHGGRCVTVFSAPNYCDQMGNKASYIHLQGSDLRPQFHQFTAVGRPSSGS
Sequence of SUMO-activating enzyme (Q9UBE0 whole entry): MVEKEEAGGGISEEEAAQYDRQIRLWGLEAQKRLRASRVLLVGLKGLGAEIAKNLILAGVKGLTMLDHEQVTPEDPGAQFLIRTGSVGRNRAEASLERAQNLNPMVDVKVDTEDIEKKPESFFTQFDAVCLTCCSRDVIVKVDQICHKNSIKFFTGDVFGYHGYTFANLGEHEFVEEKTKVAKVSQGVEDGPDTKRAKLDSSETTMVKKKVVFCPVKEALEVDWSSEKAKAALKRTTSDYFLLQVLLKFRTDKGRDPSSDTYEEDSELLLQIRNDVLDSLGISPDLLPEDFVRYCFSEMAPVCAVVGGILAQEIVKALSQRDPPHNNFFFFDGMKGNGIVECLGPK
Sequence of SUMO-activating enzyme (Q9UBT2 whole entry): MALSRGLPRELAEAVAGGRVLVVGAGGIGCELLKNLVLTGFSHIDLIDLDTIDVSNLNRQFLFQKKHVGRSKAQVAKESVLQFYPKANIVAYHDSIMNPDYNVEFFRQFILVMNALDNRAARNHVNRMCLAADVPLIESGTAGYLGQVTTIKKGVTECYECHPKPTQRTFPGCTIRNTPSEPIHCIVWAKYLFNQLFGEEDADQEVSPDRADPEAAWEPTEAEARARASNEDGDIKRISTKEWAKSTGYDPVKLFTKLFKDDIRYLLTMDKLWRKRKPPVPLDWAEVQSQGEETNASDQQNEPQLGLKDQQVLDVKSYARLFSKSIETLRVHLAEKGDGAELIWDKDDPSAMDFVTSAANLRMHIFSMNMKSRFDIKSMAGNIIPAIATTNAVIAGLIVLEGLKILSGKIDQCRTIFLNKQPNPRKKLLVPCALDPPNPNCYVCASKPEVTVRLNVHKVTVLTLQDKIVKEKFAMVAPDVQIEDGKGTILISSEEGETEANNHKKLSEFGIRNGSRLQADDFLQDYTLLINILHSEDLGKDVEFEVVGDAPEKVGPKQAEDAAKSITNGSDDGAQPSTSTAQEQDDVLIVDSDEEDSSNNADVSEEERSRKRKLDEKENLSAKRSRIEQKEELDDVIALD
Sequence of Beta-galactosidase (Q8VNN2 whole entry): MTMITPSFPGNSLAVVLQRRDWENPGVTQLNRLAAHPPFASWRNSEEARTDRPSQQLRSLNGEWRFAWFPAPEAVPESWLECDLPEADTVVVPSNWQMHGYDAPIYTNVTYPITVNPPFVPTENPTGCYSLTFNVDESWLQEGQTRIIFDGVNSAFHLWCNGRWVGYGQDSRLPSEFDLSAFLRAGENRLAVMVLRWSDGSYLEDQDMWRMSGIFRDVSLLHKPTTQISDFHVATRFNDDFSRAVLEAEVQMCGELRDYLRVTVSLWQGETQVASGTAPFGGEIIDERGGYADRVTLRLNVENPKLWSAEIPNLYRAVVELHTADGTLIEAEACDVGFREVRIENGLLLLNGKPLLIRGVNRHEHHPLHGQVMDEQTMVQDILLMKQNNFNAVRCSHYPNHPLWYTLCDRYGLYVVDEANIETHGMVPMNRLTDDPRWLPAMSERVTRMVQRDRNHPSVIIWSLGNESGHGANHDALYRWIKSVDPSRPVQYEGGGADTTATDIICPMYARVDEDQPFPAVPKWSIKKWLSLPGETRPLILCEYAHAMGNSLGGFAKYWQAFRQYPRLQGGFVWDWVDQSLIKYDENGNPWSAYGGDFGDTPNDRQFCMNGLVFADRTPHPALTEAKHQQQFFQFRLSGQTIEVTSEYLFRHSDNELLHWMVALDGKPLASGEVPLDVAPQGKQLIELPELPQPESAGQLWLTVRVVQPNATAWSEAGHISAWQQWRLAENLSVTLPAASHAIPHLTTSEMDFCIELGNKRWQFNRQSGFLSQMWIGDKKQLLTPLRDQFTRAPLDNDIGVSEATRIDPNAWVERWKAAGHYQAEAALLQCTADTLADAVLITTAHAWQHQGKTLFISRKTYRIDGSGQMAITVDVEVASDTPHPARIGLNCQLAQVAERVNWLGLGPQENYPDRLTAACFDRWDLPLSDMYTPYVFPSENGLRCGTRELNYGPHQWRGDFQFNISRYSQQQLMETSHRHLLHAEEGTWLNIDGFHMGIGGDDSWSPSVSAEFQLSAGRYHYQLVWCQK
Sequence of Protein Rev (P04618 whole entry): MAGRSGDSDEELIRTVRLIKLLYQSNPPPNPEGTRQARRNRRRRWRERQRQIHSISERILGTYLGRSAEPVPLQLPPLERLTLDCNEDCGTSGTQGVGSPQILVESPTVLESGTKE

For `Cc1cccc(C)c1-n1cccc1/C=C1\SC(=S)N(c2cccc(C(=O)O)c2)C1=O`, the EC50 (as a rule, the concentration that produces a half-maximal response) in [1] was 2.07 µM (active); in assay [2] it was 8.78 µM (active); in [3], 3.35 µM (active).

Consider `Oc1ccc(/C=N/Nc2cc(N3CCCC3)nc(N3CCCC3)n2)cc1`, for which the IC50 – broadly, the point on the concentration scale where inhibition reaches its midpoint – in assay [4] was 1.36 µM (active); in [5] it was 10.9 µM (not active); in assay [6] it was > 99 µM (inactive).

For the compound `COc1ccc(S(=O)(=O)/N=C2\C=C(Nc3ccc(O)cc3)C(=O)c3ccccc32)cc1`, the IC50 in [7] was 0.586 µM (active); in [8] it was 43 µM (inactive); in assay [9], 4.19 µM (active).

In the case of `COc1ccc(/C=N/Nc2cc(N3CCCC3)nc(N3CCCC3)n2)cc1`, the IC50 in [10] is 2.31 µM (active). Also, the AC50 (in general, the concentration at which the activity in the assay is half-maximal) in [11] is 3.71 µM (active).
